Test results reported in ChEMBL document CHEMBL5236564, “An overview of the development of EED inhibitors to disable the PRC2 function” (RSC Med Chem, 2022).
Values belong to the compound of their own block, whether it stands above or below them. Bridge positions count the residues as written; N and C are the ends. Square brackets hold non-standard residues; d marks the D form. Peptide text beside a SMILES is read from it. ξ: configuration not given here. S5 = C=CCCC[C@](C)(N)C(=O)O; ξIle = CC[C@H](C)C(N)C(=O)O

Assays:
KARPAS-422 [1] = assay: Antitumor activity against human KARPAS-422 cells xenografted in mouse assessed as tumor growth inhibition at 100 mg/kg, po administered twice daily for 36 days relative to control; type: functional; settings: KARPAS-422, 864 h, time 36 day, read-out: TGI
Pfeiffer = assay: Antitumor activity against human Pfeiffer cells xenografted in mouse assessed as tumor growth inhibition at 100 mg/kg, po administered twice daily for 36 days relative to control; type: functional; settings: 864 h, time 36 day, read-out: TGI
Polycomb protein EED [2] = biological target: T1, Polycomb protein EED (Homo sapiens, UniProt O75530); assay: Displacement of H3K27me3 from EED (unknown origin) by competitive binding assay
Target sequence in this assay (O75530 whole entry): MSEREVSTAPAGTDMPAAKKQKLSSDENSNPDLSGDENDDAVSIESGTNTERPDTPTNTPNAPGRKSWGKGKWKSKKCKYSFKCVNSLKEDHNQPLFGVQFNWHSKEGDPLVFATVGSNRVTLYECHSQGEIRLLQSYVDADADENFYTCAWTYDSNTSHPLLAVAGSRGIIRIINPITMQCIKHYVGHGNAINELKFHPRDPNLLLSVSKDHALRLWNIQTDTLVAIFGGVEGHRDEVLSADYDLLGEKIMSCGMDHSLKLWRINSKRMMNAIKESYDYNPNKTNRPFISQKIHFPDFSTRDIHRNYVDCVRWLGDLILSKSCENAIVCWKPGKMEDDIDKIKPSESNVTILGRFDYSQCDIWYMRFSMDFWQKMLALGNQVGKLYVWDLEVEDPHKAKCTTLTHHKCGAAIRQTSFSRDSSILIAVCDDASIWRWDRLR

[3] = Inhibition of EED/EZH2 (unknown origin) interaction by fluorescence polarization assay; set-up: species or system Homo sapiens
[4] = Inhibition of human N- terminal 6 his sumo-tagged EED (81 to 441 residues)/EZH2(39 to 63 residues) (unknown origin) interaction expressed in Escherichia coli BL21(DE3) incubated for 2 hrs by fluorescence polarization based competitive assay
EZH2/SUZ12/EED complex = EZH2/SUZ12/EED complex (Homo sapiens, UniProt O75530+Q15022+Q15910); assay: Binding affinity to PRC2 complex of EZH2-EED-SUZ12 (unknown origin) assessed as dissociation constant by isothermal titration calorimetry method; type: protein-complex assay
[5] = biological target: EZH2/SUZ12/EED complex (Homo sapiens) (UniProt Q15910+O75530+Q15022)
Description: Stabilization of PRC2 complex of EZH2-EED-SUZ12 (unknown origin) assessed as thermal stability by measuring increase in melting temperature by thermal shift assay

KARPAS-422 [6] = assay: Antitumor activity against human KARPAS-422 cells xenografted in mouse at 40 mg/kg via oral gavage and mesured after 32 days by caliper method relative to control; type: functional; settings: KARPAS-422, 768 h, time 32 day, read-out: TGI
[7] = Inhibition of PRC2 (unknown origin) using H3K27me0 as peptide substrate by LC-MS based analysis; set-up: species or system Homo sapiens
KARPAS-422 [8] = assay: Synergistic growth inhibition against human KARPAS-422 cells assessed as reduction in H3K27me3 level by measuring synergistic score upto 10 uM measured after 4 days in presence of EI1; type: functional; settings: time 4 day
KARPAS-422 [9] = assay: Synergistic growth inhibition against human KARPAS-422 cells assessed as reduction in cell proliferation by measuring synergistic score at upto 10 uM measured after 6 days in presence of EI1; type: functional; settings: time 6 day
Polycomb protein EED [10] = biological target: T1, Polycomb protein EED; assay: Binding affinity to C-terminal histidine tagged EED (unknown origin) expressed in Escherichia coli BL21(DE3) incubated for 15 mins by fluorescence polarization analysis
Target sequence in this assay (O75530 whole entry): as above

[11] = Synergistic cell viability against human MLL-AF9 cells by measuring combination index score at 0.3 to 3 uM measured after 7 days in presence of GSK126; type: functional; settings: dose 0.3-3 µM; time 7 day
KARPAS-422 [12] = assay: Synergistic cell viability against human KARPAS-422 cells by measuring combination index score at 0.3 to 3 uM measured after 7 days in presence of GSK126; type: functional; settings: dose 0.3-3 µM; time 7 day
Polycomb protein EED [13] = biological target: T1, Polycomb protein EED; assay: Binding affinity to his tagged EED (1 to 441 residues) (unknown origin) incubated for 20 mins in presence of biotinylated H3K27me3 peptide (19 to 33 residues) by alphascreen competitive binding assay
Target sequence in this assay (O75530 whole entry): as above

Polycomb protein EED [14] = biological target: T1, Polycomb protein EED; assay: Stabilization of EED (unknown origin) assessed as change in melting temperature by thermal shift assay; settings: tested as the 2H-labelled form
Target sequence in this assay (O75530 2-441 limits assumed): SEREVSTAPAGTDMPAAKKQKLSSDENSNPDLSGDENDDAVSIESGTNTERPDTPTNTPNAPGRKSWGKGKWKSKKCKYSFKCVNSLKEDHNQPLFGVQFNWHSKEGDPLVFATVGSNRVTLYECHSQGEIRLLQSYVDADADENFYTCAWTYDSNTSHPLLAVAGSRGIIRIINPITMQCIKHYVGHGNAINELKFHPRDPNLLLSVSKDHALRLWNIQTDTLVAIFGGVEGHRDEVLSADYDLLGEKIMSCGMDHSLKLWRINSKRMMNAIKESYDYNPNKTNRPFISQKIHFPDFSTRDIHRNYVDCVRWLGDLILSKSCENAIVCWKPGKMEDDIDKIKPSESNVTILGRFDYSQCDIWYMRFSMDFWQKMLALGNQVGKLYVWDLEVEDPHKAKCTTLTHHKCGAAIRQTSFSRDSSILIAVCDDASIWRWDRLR

[15] = Oral bioavailability in mouse; type: ADME, organism-based; settings: in vivo

Sequence of EZH2/SUZ12/EED complex (Q15910 whole entry): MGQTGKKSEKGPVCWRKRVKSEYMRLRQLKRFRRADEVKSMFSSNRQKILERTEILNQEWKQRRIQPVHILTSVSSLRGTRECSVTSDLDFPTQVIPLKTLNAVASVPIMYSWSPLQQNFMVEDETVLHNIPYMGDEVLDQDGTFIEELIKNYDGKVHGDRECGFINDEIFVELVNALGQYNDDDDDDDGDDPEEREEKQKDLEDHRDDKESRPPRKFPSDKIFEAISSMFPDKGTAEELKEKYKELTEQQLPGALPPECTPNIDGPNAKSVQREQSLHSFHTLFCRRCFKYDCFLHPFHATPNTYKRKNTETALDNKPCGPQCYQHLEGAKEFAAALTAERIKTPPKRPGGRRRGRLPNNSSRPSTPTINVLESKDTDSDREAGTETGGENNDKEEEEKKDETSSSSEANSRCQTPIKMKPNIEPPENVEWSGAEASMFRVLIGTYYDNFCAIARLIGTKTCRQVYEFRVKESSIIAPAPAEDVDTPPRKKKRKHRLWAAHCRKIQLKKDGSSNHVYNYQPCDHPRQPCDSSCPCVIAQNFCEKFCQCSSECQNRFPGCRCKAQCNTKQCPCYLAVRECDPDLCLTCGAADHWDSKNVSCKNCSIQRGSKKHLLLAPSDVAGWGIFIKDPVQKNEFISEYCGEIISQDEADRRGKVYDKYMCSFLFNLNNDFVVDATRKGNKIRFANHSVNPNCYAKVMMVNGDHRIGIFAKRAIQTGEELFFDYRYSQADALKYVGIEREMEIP
Sequence of EZH2/SUZ12/EED complex (O75530 whole entry): as the sequence (O75530 whole entry) above
Sequence of EZH2/SUZ12/EED complex (Q15022 whole entry): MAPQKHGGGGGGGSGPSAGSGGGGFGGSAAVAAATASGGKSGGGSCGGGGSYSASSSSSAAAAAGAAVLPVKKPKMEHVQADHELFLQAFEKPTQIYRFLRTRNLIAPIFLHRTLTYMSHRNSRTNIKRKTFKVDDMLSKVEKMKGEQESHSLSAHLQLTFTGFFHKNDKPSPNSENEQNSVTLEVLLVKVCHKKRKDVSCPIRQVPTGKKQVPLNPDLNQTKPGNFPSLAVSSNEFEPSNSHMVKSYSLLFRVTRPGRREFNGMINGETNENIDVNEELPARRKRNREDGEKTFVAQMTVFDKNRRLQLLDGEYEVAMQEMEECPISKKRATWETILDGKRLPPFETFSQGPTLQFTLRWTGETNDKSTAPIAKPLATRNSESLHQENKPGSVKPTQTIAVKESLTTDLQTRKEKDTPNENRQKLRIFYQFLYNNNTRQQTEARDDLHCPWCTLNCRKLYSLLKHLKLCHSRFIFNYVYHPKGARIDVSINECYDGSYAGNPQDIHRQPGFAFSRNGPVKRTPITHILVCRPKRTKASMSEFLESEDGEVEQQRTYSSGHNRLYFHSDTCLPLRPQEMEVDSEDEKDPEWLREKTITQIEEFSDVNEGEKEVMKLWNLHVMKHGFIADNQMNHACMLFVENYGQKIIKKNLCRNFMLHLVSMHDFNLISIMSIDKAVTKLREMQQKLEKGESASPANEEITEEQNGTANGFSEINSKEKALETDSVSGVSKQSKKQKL
Sequence of EZH2/SUZ12/EED complex (Homo sapiens) (O75530 2-441 partner limits assumed): as the sequence (O75530 2-441 limits assumed) above
Sequence of EZH2/SUZ12/EED complex (Homo sapiens) (Q15022 whole entry partner): as the sequence (Q15022 whole entry) above
Sequence of EZH2/SUZ12/EED complex (Homo sapiens) (Q15910 whole entry): as the sequence (Q15910 whole entry) above

Compound: [2H]C([2H])(Nc1ncc(-c2cccnc2C)c(=O)[nH]1)c1c(F)ccc2c1CCO2
inhibition in vivo at 100 mg/kg (KARPAS-422 [1]): 85%
inhibition in vivo at 100 mg/kg (Pfeiffer): 96%
IC50 (Polycomb protein EED [2]): 0.0045 µM

Compound: CS(=O)(=O)c1ccc(-c2cnc(NCc3ccco3)n3cnnc23)cc1
Kd (EZH2/SUZ12/EED complex): 0.082 µM
ΔTm [5]: > 8 °C
inhibition in vivo at 40 mg/kg (KARPAS-422 [6]): 100%
IC50 [7]: 0.0234 µM
Activity (KARPAS-422 [8]): 2.17
Activity (KARPAS-422 [9]): 1.67

Compound: CC[C@H](C)C1NC(=O)[C@H](CCCCN)NC(=O)[C@@](C)(NC(=O)[C@H](CCCNC(=N)N)NC(=O)[C@H](CC(N)=O)NC(=O)[C@H](CO)NC(=O)[C@H](CO)NC(=O)[C@H](Cc2ccccc2)NC(C)=O)CCC/C=C/CCC[C@@](C)(C(=O)N[C@@H](CCCNC(=N)N)C(=O)N[C@H](C(=O)N[C@@H](CCC(N)=O)C(=O)N[C@H](C(=O)N[C@@H](CC(C)C)C(=O)N[C@@H](CC(N)=O)C(=O)N[C@@H](CCC(N)=O)C(=O)N[C@@H](CCC(=O)O)C(=O)N[C@@H](Cc2c[nH]c3ccccc23)C(=O)N[C@@H](CCCCN)C(=O)N[C@@H](CCC(N)=O)C(=O)N[C@@H](CCCNC(=N)N)C(=O)N[C@@H](CCCNC(=N)N)C(=O)N[C@H](C(=O)N[C@@H](CCC(N)=O)C(=O)N2CCC[C@H]2C(=O)N[C@H](C(=O)O)C(C)C)[C@@H](C)CC)[C@@H](C)CC)[C@@H](C)O)NC(=O)[C@H](CC(C)C)NC1=O (stereo not given in full) (Ac-FSSNR[S5]K[ξIle]L[S5]RTQILNQEWKQRRIQPV-OH; staple (E) 6-10)
Kd (Polycomb protein EED [10]): 0.00032 µM
Activity [11]: 0.11
Activity (KARPAS-422 [12]): 0.74

Compound: COC(=O)C1=C(C)NC(C)=C(C(=O)OC)C1c1ccccc1[N+](=O)[O-] [NIFEDIPINE]
IC50 [3]: 343 µM

Compound: CCCCC1C(=O)N(c2ccccc2)N(c2ccc(O)cc2)C1=O (stereo not given) [OXYPHENBUTAZONE ANHYDROUS]
IC50 [3]: 229 µM

Compound: Cc1sc(NC(=O)CCCCC(=O)Nc2sc(C)c(C)c2C(N)=O)c(C(N)=O)c1C
IC50 [4]: 54.9 µM

Next, values leading:

IC50 [3]: 15.5 µM
Compound: CN1CCc2cccc3c2[C@H]1Cc1ccc(O)c(O)c1-3 [APOMORPHINE]

IC50 [4]: 63.9 µM
Compound: Cc1ccc(C(C2=C(O)CC(C)(C)CC2=O)C2C(=O)CC(C)(C)CC2=O)s1 (stereo not given)

IC50 (Polycomb protein EED [13]): 8.76 µM
Compound: Cc1cc(C)n(-c2cc(N3CCCc4ccccc43)ccc2[N+](=O)[O-])n1

ΔTm (Polycomb protein EED [14]): 6 °C
Compound: Cc1ncccc1-c1cnc(NCc2c(F)ccc3c2CCO3)[nH]c1=O

bioavailability [15]: 0.2%
Compound: CC[C@@H](C)n1cc(C)c2c(C(=O)NCc3c(C)cc(C)[nH]c3=O)cc(-c3ccc(N4CCNCC4)nc3)cc21
